The test system of experiment [1] is BE2-C. The experiment is described as follows: MTT cell growth inhibition: BE2-C. The experiment is classed as cell-based. Conditions: BE2-C neuroblastoma, 72 h; for inhibition at 25 µM: Homo sapiens, BE(2)-C, read-out: Percentage (%) Cell Growth Inhibition in response to 25 µM of Drug. The procedure: (§1) All test agents were prepared as stock solutions (20 mM) in dimethyl sulfoxide (DMSO) and stored at −20 °C. Cell lines used in the study included HT29 (colorectal carcinoma); U87, SJ-G2, (glioblastoma); MCF-7, (breast carcinoma); A2780 (ovarian carcinoma); H460 (lung carcinoma); A431 (skin carcinoma); Du145 (prostate carcinoma); BE2-C (neuroblastoma); MiaPaCa-2 (pancreatic carcinoma); and SMA560 (spontaneous murine astrocytoma), together with the one non-tumour-derived normal breast cell line (MCF10A). All cell lines were incubated in a humidified atmosphere 5% CO2 at 37 °C. The cancer cell lines were maintained in Dulbecco’s modified Eagle’s medium (DMEM; Sigma, Australia) supplemented with foetal bovine serum (10%), sodium pyruvate (10 mM), penicillin (100 IUmL^−1), streptomycin (100 µg mL^−1) and L-glutamine (2 mM).
(§2) Growth inhibition was determined by plating cells in duplicate in medium (100 µL) at a density of 2500–4000 cells per well in 96-well plates. On day 0 (24 h after plating), when the cells were in logarithmic growth, medium (100 µL) with or without the test agent was added to each well. After 72 h drug exposure, growth inhibitory effects were evaluated using the MTT (3-(4,5-dimethyltiazol-2-yl)-2,5-diphenyltetrazolium bromide) assay and absorbance read at 540 nm. The percentage growth inhibition was calculated at a fixed concentration of 25 µM, based on the difference between the optical density values on day 0 and those at the end of drug exposure. Each data point is the mean ± the standard error of the mean (SEM) calculated from three replicates which were performed on separate occasions and separate cell line passages.

The subject of experiment [2] is HT29. The experiment is described as follows: MTT cell growth inhibition: HT29. The format is cell-based. Conditions: 72 h; for inhibition at 25 µM: Homo sapiens, HT-29, HT29 colon carcinoma, read-out: Percentage (%) Cell Growth Inhibition in response to 25 µM of Drug; for Percentage (%) Cell Growth Inhibition in response to 25 µM of Drug: HT29 colon carcinoma. As for the experimental part: as §1, §2

Experiment [3] has as its system MIA-Pa-Ca2. The experiment in a line: MTT cell growth inhibition: MIA-Pa-Ca2. The format is cell-based. Conditions: 72 h; for inhibition at 25 µM: Homo sapiens, MIA PaCa-2, MIA-Pa-Ca2 pancreatic carcinoma, read-out: Percentage (%) Cell Growth Inhibition in response to 25 µM of Drug; for Percentage (%) Cell Growth Inhibition in response to 25 µM of Drug: MIA-Pa-Ca2 pancreatic carcinoma. As for the experimental part:
as §1, §2

The target in experiment [4] is T1, Jack bean α-mannosidase (Canavalia ensiformis, UniProt C0HJB3).
T1 construct: purchased Sigma-Aldrich Co
T1 sequence (C0HJB3 1-981): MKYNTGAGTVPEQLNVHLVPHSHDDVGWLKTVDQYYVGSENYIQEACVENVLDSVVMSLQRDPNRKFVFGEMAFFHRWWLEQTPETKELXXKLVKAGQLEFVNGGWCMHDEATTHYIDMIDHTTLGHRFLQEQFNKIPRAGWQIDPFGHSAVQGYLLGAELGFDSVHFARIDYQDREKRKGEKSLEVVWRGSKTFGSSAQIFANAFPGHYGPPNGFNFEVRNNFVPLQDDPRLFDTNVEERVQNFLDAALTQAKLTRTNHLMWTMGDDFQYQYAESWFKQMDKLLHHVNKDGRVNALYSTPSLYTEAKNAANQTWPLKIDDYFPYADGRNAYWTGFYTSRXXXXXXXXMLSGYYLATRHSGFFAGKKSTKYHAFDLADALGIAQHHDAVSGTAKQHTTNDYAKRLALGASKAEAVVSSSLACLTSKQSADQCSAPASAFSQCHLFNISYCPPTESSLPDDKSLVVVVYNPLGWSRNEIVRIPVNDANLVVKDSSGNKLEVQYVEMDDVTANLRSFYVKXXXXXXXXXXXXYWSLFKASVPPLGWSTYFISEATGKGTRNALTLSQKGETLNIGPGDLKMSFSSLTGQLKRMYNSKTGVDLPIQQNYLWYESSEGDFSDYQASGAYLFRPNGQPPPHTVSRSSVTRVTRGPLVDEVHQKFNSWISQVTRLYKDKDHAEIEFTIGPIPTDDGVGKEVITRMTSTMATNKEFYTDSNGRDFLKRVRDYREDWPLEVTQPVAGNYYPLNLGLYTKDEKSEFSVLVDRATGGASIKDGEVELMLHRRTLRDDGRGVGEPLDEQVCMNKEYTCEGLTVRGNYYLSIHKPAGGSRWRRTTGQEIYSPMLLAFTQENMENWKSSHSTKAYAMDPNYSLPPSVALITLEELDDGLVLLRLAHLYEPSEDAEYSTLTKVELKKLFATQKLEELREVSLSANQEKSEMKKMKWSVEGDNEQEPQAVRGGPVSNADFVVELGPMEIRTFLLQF
The experiment is described as follows: Glycosidase inhibition, laboratory 1: Jack bean α-mannosidase. The experiment is classed as biochemical. As to conditions: methanol. The text has this:
(§3) The enzymes α-glucosidase (from yeast), β-glucosidases (from almond and bovine liver), α-galactosidase (from coffee beans), β-galactosidase (from bovine liver), α-mannosidase (from Jack bean), β-mannosidase (from snail), α-L-rhamnosidase (from Penicillium decumbens), α-L-fucosidase (from bovine kidney), trehalase (from porcine kidney), β-glucuronidases (from E. coli and bovine liver), amyloglucosidase (from A. niger), para-nitrophenyl glycosides, and various disaccharides were purchased from Sigma-Aldrich Co (St Louis, MO, USA).
(§4) Brush border membranes were prepared from the rat small intestine according to the method of Kessler et al. and were assayed at pH 6.8 for rat intestinal maltase using maltose. For rat intestinal maltase, porcine kidney trehalase, and A. niger amyloglucosidase activities, the reaction mixture contained 25 mM maltose and the appropriate amount of enzyme, and the incubations were performed for 10–30 min at 37 °C. The reaction was stopped by heating at 100 °C for 3 min. After centrifugation (600× g; 10 min), the resulting reaction mixture was added to the Glucose CII-test Wako (Wako Pure Chemical Ind., Osaka, Japan). The absorbance at 505 nm was measured to determine the amount of the released D-glucose. Other glycosidase activities were determined using an appropriate para-nitrophenyl glycoside as substrate at the optimum pH of each enzyme. The reaction mixture contained 2 mM of the substrate and the appropriate amount of enzyme. The reaction was stopped by addition of 400 mM Na2CO3. The released para-nitrophenol was measured spectrometrically at 400 nm. All reactions run in methanol.

Experiment [5] has as its target T2, bovine kidney α-L-fucosidase (Bos taurus, UniProt Q2KIM0).
T2 construct: purchased Sigma-Aldrich Co
T2 sequence (Q2KIM0 23-468): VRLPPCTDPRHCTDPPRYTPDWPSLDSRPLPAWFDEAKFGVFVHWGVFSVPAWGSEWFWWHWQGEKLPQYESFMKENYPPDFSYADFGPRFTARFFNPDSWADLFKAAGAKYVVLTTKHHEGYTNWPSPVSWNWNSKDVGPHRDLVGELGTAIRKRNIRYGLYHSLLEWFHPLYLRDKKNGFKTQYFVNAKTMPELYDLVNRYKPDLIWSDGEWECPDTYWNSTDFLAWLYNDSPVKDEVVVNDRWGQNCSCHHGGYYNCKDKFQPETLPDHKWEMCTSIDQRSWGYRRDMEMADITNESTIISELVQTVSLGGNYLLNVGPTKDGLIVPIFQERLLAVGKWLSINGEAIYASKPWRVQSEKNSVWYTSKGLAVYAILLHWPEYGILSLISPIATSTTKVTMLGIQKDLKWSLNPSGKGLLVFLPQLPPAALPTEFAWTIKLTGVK
The experiment is described as follows: Glycosidase inhibition, laboratory 1: α-L-fucosidase. The experiment is classed as biochemical. Conditions: methanol.
From the text: as §3, §4

Usually inhibition stands for how much of the control response was suppressed.

With `N[C@@H](Cc1ccc(B(O)O)cc1)C(=O)O` [BPA, 4-borono-L-phenylalanine, reference compound], the figures for the inhibition at 25 µM in experiment [1], in experiment [2] and in experiment [3] were 13 ± 10%, 14% and 3 ± 3%, respectively.

Consider `N[C@@H](Cc1ccc(B(O)O)cc1)C(=O)O` [^10B-BPA, reference compound], for which the “inhibition % at 100 μM” value in experiment [4] (100 μM) and in experiment [5] (100 μM) was “^cNI ^d (0%)” each time. The “Percentage (%) Cell Growth Inhibition in response to 25 µM of Drug” value in experiment [1] is 10 ± 6%; in experiment [2], 15 ± 4%; in experiment [3], 11 ± 3%.

Turning to `CC1(C)OB(c2cccc(CN3C(=O)c4c(Cl)c(Cl)c(Cl)c(Cl)c4C3=O)c2)OC1(C)C` [meta 3, 4,5,6,7-Tetrachloro-2-(3-(4,4,5,5-tetramethyl-1,3,2-dioxaborolan-2-yl)benzyl)isoindoline-1,3-dione], the figures for the inhibition at 10 µM in experiment [4] and in experiment [5] were 2.7% and 4.7%, respectively. The inhibition at 25 µM was determined as 45 ± 2% in experiment [1], 53 ± 3% in experiment [2] and 29 ± 2% in experiment [3].

On to `CC1(C)OB(c2cccc(NC(=O)c3cc(Cl)c(Cl)c(Cl)c3Cl)c2)OC1(C)C` [meta 5, 2,3,4,5-tetrachloro-N-(3-(4,4,5,5-tetramethyl-1,3,2-dioxaborolan-2-yl)phenyl)benzamide], for which the inhibition at 100 µM in experiment [4] (100 μM) stood at 7.6%; in experiment [5] (100 μM), 3.3%. The inhibition at 25 µM worked out at 3 ± 4% in experiment [1], 10 ± 7% in experiment [2] and 8 ± 5% in experiment [3].

As for `CC1(C)OB(c2ccccc2NC(=O)c2cc(Cl)c(Cl)c(Cl)c2Cl)OC1(C)C` [ortho 5, 2,3,4,5-Tetrachloro-N-(2-(4,4,5,5-tetramethyl-1,3,2-dioxaborolan-2-yl)phenyl)benzamide], the inhibition at 10 µM in experiment [4] was found to be 3.4%; in experiment [5], 0%. The results for the inhibition at 25 µM in experiment [1], in experiment [2] and in experiment [3] were over 100%, 98 ± 2% and 100 ± 3%, respectively.

For the molecule `CC1(C)OB(c2ccccc2CNC(=O)c2cc(Cl)c(Cl)c(Cl)c2Cl)OC1(C)C` [ortho 8, 2,3,4,5-tetrachloro-N-(2-(4,4,5,5-tetramethyl-1,3,2-dioxaborolan-2-yl)benzyl)benzamide], the figures for the inhibition at 100 µM in experiment [4] (100 μM) and in experiment [5] (100 μM) were 12.5% and 19.9%, respectively. Also, the inhibition at 25 µM came to 2 ± 5% in experiment [1], 5 ± 10% in experiment [2] and 6 ± 10% in experiment [3].

For `CC1(C)OB(c2ccc(CN3C(=O)c4c(Cl)c(Cl)c(Cl)c(Cl)c4C3=O)cc2)OC1(C)C` [para 3, 4,5,6,7-Tetrachloro-2-(4-(4,4,5,5-tetramethyl-1,3,2-dioxaborolan-2-yl)benzyl)isoindoline-1,3-dione], the inhibition at 100 µM in experiment [4] (100 μM) and in experiment [5] (100 μM) was 0% throughout. Also, the inhibition at 25 µM in experiment [1] is over 100%; in experiment [2] it was 99 ± 2%; in experiment [3] it was 98 ± 3%.

`CC1(C)OB(c2ccc(NC(=O)c3cc(Cl)c(Cl)c(Cl)c3Cl)cc2)OC1(C)C` [para 5, 2,3,4,5-tetrachloro-N-(4-(4,4,5,5-tetramethyl-1,3,2-dioxaborolan-2-yl)phenyl)benzamide]: the inhibition at 100 µM in experiment [4] (100 μM) was 19.3%; in experiment [5] (100 μM) it was 5.1%. Also, the inhibition at 25 µM came to 54 ± 1% in experiment [1], 69 ± 7% in experiment [2] and 52 ± 1% in experiment [3].

As to “Borocaptate sodium [BSH, reference compound]”, the “inhibition % at 1000 μM” value is “^aNI ^b (7.9%)” in experiment [4] (1000 μM) and “^aNI ^b (0%)” in experiment [5] (1000 μM). Also, the figures for the “Percentage (%) Cell Growth Inhibition in response to 25 µM of Drug” value in experiment [1], in experiment [2] and in experiment [3] were 10 ± 6%, 3 ± 2% and 2 ± 6%, respectively.
